# Reference: patent publication US20230069963A1, “PYRAZOLO[1,5-A]PYRIMIDINE MACROCYCLIC COMPOUND” (priority 2018, published 2023)
# Counter-ions that a name gives are not always drawn.
# System: RSV ATCC VR-1540 (A2)
# Assay: microbe, parasite or virus in culture
# Type: cell-based
# Settings: human respiratory syncytial virus, HEp-2, 96 h; Hep2 cells, incubated for 4 days, CPE detected with XTT assay (absorbance 450 nm); read-out: EC50 (nmol/L) against RSV A2 strain
row,SMILES,EC50 [nmol/L]
1,"CN1CCNC(=O)COc2ccc(I)cc2C(=O)N2CCCC[C@H]2c2cc3nc(C4CC4)cc1n3n2 [Example 97, (18aS)-13-cyclopropyl-2-iodo-1 l-methyl-8,9,10,11,19,20,21,22-octahydro-18aH,24H-18,15-(metheno)pyrido[2,1l-]pyrimido[6,1-h][1,4,7,9,10,13]benzoxapentaazacyclohexadecine-7,24(6H)-dione]",0.76
2,"CN1CCNC(=O)COc2ccc(F)cc2C(=O)N2CCCC[C@H]2c2cc3nc(N4CC(N)C4)cc1n3n2 [Example 4, (18aS)-13-(3-aminoazetidin-1-yl)-2-fluoro-11-methyl-8,9,10,11,19,20,21,22-octahydro-18aH,24H-18,15-(metheno)pyrido[2,1-l]pyrimido[6,1-h][1,4,7,9,10,13]benzoxapentaazacyclohexadecine-7,24(6H)-dione]",2.71
3,"CCCc1cc2n3nc(cc3n1)[C@@H]1CCCCN1C(=O)c1cc(CN)ccc1OCC(=O)NCCN2C [Example 101, (18aS)-2-(aminomethyl)-11-methyl-13-propyl-8,9,10,11,19,20,21,22-octahydro-18aH,24H-18,15-(metheno)pyrido[2,1-l]pyrimido[6,1-h][1,4,7,9,10,13]benzoxapentaazacyclohexadecine-7,24(6H)-dione]",11.9
4,"CC[C@H]1c2cc3nc(NCC(C)(C)N)cc(n3n2)N(C)CCCCOc2ccc(C)cc2C(=O)N1C [Example 208, (17S)-3-[(2-amino-2-methylpropyl)amino]-17-ethyl-5,13,16-trimethyl-6,7,8,9,16,17-hexahydro-5H,15H-18,1-(metheno)pyrimido[6,1-g][1,6,8,9,12]benzoxatetraazacyclopentadecin-15-one hydrochloride]",4.33
5,"CN1CCNC(=O)COc2ccc(Cl)cc2C(=O)N2CCCCC2c2cc3nc(N4CC[C@H](N)C4)c(F)c1n3n2 (stereo partly drawn) [Example 87, (18aS)-13-[(3S)-3-aminopyrrolidin-1-yl]-2-chloro-12-fluoro-11-methyl-8,9,10,11,19,20,21,22-octahydro-18aH,24H-18,15-(metheno)pyrido[2,1-l]pyrimido[6,1-h][1,4,7,9,10,13]benzoxapentaazacyclohexadecine-7,24(6H)-dione hydrochloride]",3.77
6,"CN1CCCCOCC(C)(c2cccnc2)C(=O)N2CCCCC2c2cc3nc(N4CC(N)C4)cc1n3n2 [Example 380, (18aS)-3-(3-aminoazetidin-1-yl)-5,12-dimethyl-12-(pyridin-3-yl)-6,7,8,9,11,12,16,17,18,18a-decahydro-5H,13H,15H-19,1-(metheno)pyrido[,2-e]pyrimido[1,6-i][1,5,8,9,11]oxatetraazacyclopentadecin-13-one]",8.77
7,"CN1CCc2cn(nn2)Cc2ccc(Cl)cc2C(=O)N2CCCC[C@H]2c2cc3nc(N4CC(N)C4)cc1n3n2 [Example 330, (19aS)-14-(3-aminoazetidin-1-yl)-2-chloro-12-methyl-11,12,20,21,22,23-hexahydro-10H,19aH-6,9:19,16-di(metheno)pyrido[2,1-m]pyrimido[6,1-i][2,3,4,8,10,11,14]benzoheptaazacycloheptadecin-25(5H)-one]",19.8
8,"Cc1c(NCCN)nc2cc3nn2c1NCCCCOc1ccc(Cl)cc1C(=O)N1CCCC[C@@H]31 [Example 285, (23aS)-18-[(2-aminoethyl)amino]-8-chloro-17-methyl-1,3,4,13,14,15,16,23a-octahydro-2H,6 H,12H-23,20-(metheno)pyrido[2,1-k]pyrimido[6,1-g][1,6,8,9,12]benzoxatetraazacyclopentadecin-6-one hydrochloride]",11.9
9,"CN1CCNCCOc2ccc(F)cc2C(=O)N2CCCC[C@H]2c2cc3nc(N4CCC4)cc1n3n2 [Example 133, (18aS)-13-(azetidin-1-yl)-2-fluoro-11-methyl-6,7,8,9,10,11,19,20,21,22-decahydro-18aH,24H-18,15-(metheno)pyrido[2,1-l]pyrimido[6,1-h][1,4,7,9,10,13]benzoxapentaazacyclohexadecin-24-one]",1.36
10,"CN1CC(C)(C)NC(=O)COc2ccc(F)cc2C(=O)N2CCCC[C@H]2c2cc3nc(N4CC(N)C4)cc1n3n2 [Example 11, (18aS)-13-(3-aminoazetidin-1-yl)-2-fluoro-9,9,11-trimethyl-8,9,10,11,19,20,21,22-octahydro-18aH,24H-18,15-(metheno)pyrido[2,1-l]pyrimido[6,1-h][1,4,7,9,10,13]benzoxapentaazacyclohexadecine-7,24(6H)-dione]",1.56
11,"Cc1c(CCCCN)nc2cc3nn2c1N(C)CCNC(=O)COc1ccc(Cl)cc1C(=O)N1CCCC[C@@H]31 [Example 78, (18aS)-13-(4-aminobutyl)-2-chloro-11,12-dimethyl-8,9,10,11,19,20,21,22-octahydro-18aH,24H-18,15-(metheno)pyrido[2,1-l]pyrimido[6,1-h][1,4,7,9,10,13]benzoxapentaazacyclohexadecine-7,24(6H)-dione]",1.7
12,"CN1CCCCCc2ccc(F)cc2C(=O)N2CCCC[C@H]2c2cc3nc(N4CCC4)cc1n3n2 [Example 279, (23aS)-18-(azetidin-1-yl)-8-fluoro-16-methyl-1,3,4,11,12,13,14,15,16,23a-decahydro-2H,6H-23,20-(metheno)pyrido[1,2-b]pyrimido[1,6-f][2,5,6,8]benzotetraazacyclopentadecin-6-one]",14.5
13,"Cc1c(N2CCC2)nc2cc3nn2c1NCCCCOc1ccc(Cl)cc1C(=O)N1CCCC[C@@H]31 [Example 284, (23aS)-18-(azetidin-1-yl)-8-chloro-17-methyl-1,3,4,13,14,15,16,23a-octahydro-2H,6H,12H-23,20-(metheno)pyrido[2,1-k]pyrimido[6,1-g][1,6,8,9,12]benzoxatetraazacyclopentadecin-6-one]",22.2
14,"CCc1ccc2c(c1)C(=O)N(C)[C@@H](CC)c1cc3nc(N4CC[C@H](N)C4)cc(n3n1)N(C)CCCS(=O)(=O)N2 [Example 303, (17S)-3-[(3S)-3-aminopyrrolidin-1-yl]-13,17-diethyl-5,16-dimethyl-7,8,16,17-tetrahydro-5H-18,1-(metheno)-9λ^6-pyrimido[6,1-g][2,1,6,8,9,12]benzothiapentaazacyclopentadecine-9,9,15 (6H,10H)-trione]",10.5
15,"Cc1c(N2CCC(N)C2)nc2cc3nn2c1N(C)CCCCOc1ccc(Cl)cc1C(=O)N1CCCCC31 [Example 286, (23aS)-18-[(3S)-3-aminopyrrolidin-1-yl]-8-chloro-16,17-dimethyl-1,3,4,13,14,15,16,23a-octahydro-2H,6H,12H-23,20-(metheno)pyrido[2,1-k]pyrimido[6,1-g][1,6,8,9,12]benzoxatetraazacyclopentadecin-6-one]",20.8
16,"CN1CCNC(=O)COc2ccc(F)cc2C(=O)N2CCCC[C@H]2c2cc3nc(CN)cc1n3n2 [Example 25, (18aS)-13-(aminomethyl)-2-fluoro-11-methyl-8,9,10,11,19,20,21,22-octahydro-18aH,24H-18,15-(metheno)pyrido[2,1-l]pyrimido[6,1-h][1,4,7,9,10,13]benzoxapentaazacyclohexadecine-7,24(6H)-dione]",~14
17,"Cc1ccc2c(c1)C(=O)N1CCCC[C@H]1c1cc3nc(N4CCC4)cc(n3n1)N(C)CCN(C)CCO2 [Example 173, (18aS)-13-(azetidin-1-yl)-2,8,11-trimethyl-6,7,8,9,10,11,19,20,21,22-decahydro-18aH,24H-18,15-(metheno)pyrido[2,1-l]pyrimido[6,1-h][1,4,7,9,10,13]benzoxapentaazacyclohexadecin-24-one]",1.3
18,"Cc1c(NCCN)nc2cc3nn2c1N(C)CCCS(=O)(=O)Nc1ccc(Cl)cc1C(=O)N1CCCC[C@@H]31 [Example 327, (23aS)-18-[(2-aminoethyl)amino]-8-chloro-16,17-dimethyl-1,3,4,13,14,15,16,23a-octahydro-2H,6H-23,20-(metheno)-12λ^6-pyrido[2,1-k]pyrimido[6,1-g][2,1,6,8,9,12]benzothiapentaazacyclopentadecine-6,12,12(11H)-trione]",1.72
19,"Cc1nnc2n1CCN(C)c1cc(N3CC(N)C3)nc3cc(nn13)[C@@H]1CCCCN1C(=O)c1cc(Cl)ccc1OC2 [Example 328, (20aS)-15-(3-aminoazetidin-1-yl)-2-chloro-9,13-dimethyl-12,13,21,22,23,24-hexahydro-6H, 11H,20aH,26H-20,17-(metheno)pyrido[2,1-l]pyrimido[6,1-h][1,2,4]triazolo[3,4-c][1,4,7,9,10,13]benzoxapentaazacyclohexadecin-26-one]",9.48
20,"CCC1c2cc3nc(N4CC[C@H](N)C4)cc(n3n2)N(C)CCCCOc2ccccc2C(=O)N1C (stereo partly drawn) [Example 213, (17S)-3-[(3S)-3-aminopyrrolidin-1-yl]-17-ethyl-5,16-dimethyl-6,7,8,9,16,17-hexahydro-5H,15H-18,1-(metheno)pyrimido[6,1-g][1,6,8,9,12]benzoxatetraazacyclopentadecin-S5-one]",7.81
21,"CC[C@H]1c2cc3nc(N4CC[C@H](N)C4)c(C)c(n3n2)N(C)CCCCCOc2ccccc2C(=O)N1C [Example 233, (18S)-3-[(3S)-3-aminopyrrolidin-1-yl]-18-ethyl-4,5,17-trimethyl-5,6,7,8,9,10,17,18-octahydro-16H-19,1-(metheno)pyrimido[6,1-h][1,7,9,10,13]benzoxatetraazacyclohexadecin-16-one]",39.5
22,"Cc1nnc2n1CCN(C)c1cc(N3CCC3)nc3cc(nn13)[C@@H]1CCCCN1C(=O)c1cc(Cl)ccc1OC2 [Example 329, (20aS)-15-(azetidin-1-yl)-2-chloro-9,13-dimethyl-12,13,21,22,23,24-hexahydro-6H,11H,20aH,26H-20,17-(metheno)pyrido[2,1-l]pyrimido[6,1-h][1,2,4]triazolo[3,4-c][1,4,7,9,10,13]benzoxapentaazacyclohexadecin-26-one]",1.61
23,"CNC1CN(c2cc3n4nc(cc4n2)[C@@H]2CCCCN2C(=O)c2cc(F)ccc2OCC(=O)NCCN3C)C1 [Example 5, (18aS)-2-fluoro-11-methyl-13-[3-(methylamino)azetidin-1-yl]-8,9,10,11,19,20,21,22-octahydro-18aH,24H-18,15-(metheno)pyrido[2,1-l]pyrimido[6,1-h][1,4,7,9,10,13]benzoxapentaazacyclohexadecine-7,24(6H)-dione]",7.02
